Read-outs that look alike come from different tables or passages of the source.
Assays:
[1] = target: TNKS1 (Homo sapiens, UniProt O95271); test: TNKS1/PARP Biochemical Assay (TNKS1)
[2] = system: DLD1 cells; test: Long-Term Clonogenic Assay (DLD1 cells); type: cell-based
Method: Clonogenic Inhibition in DLD1 or HT55 Cells
In order to determine the efficacy of chronic dosing of putative TNKS inhibitors, long term clonogenic or ‘colony formation’ assays were carried out. This included the sparse seeding of cells in a 6-well dish followed by continuous dosing of cells over 12-14 days (depending on relative cell growth). Appropriate cell lines (DLD1 or HT55) were seeded at 500 cells/well in a 6-well dish in DMEM supplemented with FBS. […] Dosages were carried out in triplicate. Cell media containing compound or DMSO only was replenished every 48 hours. Termination of the assay included the fixation of cells with trichlororacetic acid (1 mL, 10% (v/v), Sigma Aldrich, cat. no. T6399) and incubation for 16 hours at 4° C. Fixed cells were then washed with water, allowed to dry and stained with sulforhodamine B solution (sulforhodamine B 0.05% (w/v), Sigma Aldrich cat. no. S1402, acetic acid 1% (v/v), Fisher Scientific, cat. no. A/0400/PB17)) for 12 hours at room temperature. The stain was then removed and the cells washed copiously with aqueous acetic acid (1% v/v) and allowed to dry.
The data was normalised to the DMSO control and was expressed as surviving fraction as a function of inhibitor dose.

[3] = system: TNKS stabilisation in HeLa, HT1080, HTC75 cells
[4] = system: Axin1 protein levels in DLD1 cells; test: Western Blotting for Direct and Downstream Targets of TNKS Inhibitors: Axin 1; type: cell-based;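 also: compound exposure 20 to 22 hours before lysis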
Method: DLD1 cells were assayed for the effect of putative Tankyrase1/2 inhibitors on TNKS1/2, Axin1/2 and β-catenin protein levels. […] Reduction of nuclear accumulation of β-catenin and ultimately, reduction of β-catenin/TCF/LEF transcriptional activation of Wnt target genes should correlate with loss of Wnt-luc reporter signal in the Wnt reporter assay.
DLD1 cells were seeded in a 6-well dish at 10000 cells/well in DMEM supplemented with 10% FBS. […] After washing in TBS-T, the membrane was probed with a species specific secondary antibody conjugated to HRP (1:5000, Pierce/ThermoFisher), washed again in TBS-T and reacted with chemiluminescent detection reagents (ECL, GE Healthcare, cat. no. RPN2109) followed by exposure to X-ray film (FujiFilm XR).

[5] = system: Wnt activity in DLD1-Wnt-Luc cells; test: Wnt-Luciferase Reporter Assay
[6] = read-out: Wnt IC50, DLD1-Wnt-Luc cells

| Structure (SMILES) | IC50 [1] [nM] | IC50 [5, 6] [nM] | IC50 ([5]; read-out: Wnt IC50) [nM] | Clonogenic SF50 (DLD1) [2] [µM] | stabilize TNKS (Western blotting) [3] | stabilize Axin1 (Western blotting) [4] |
| --- | --- | --- | --- | --- | --- | --- |
| Cc1cccc2c(=O)[nH]c(-c3ccc(CN4CCNCC4C)cc3)cc12 (single isomer, unassigned) [IQ-051-3] | < 50 | – | – | < 2 | – | – |
| Cc1cccc2c(=O)[nH]c(-c3ccc(N(C)C)cc3)cc12 [IQ-001] | < 20 | – | – | < 2 | – | – |
| CN1CCN(c2ccc(-c3cc4c(Cl)cccc4c(=O)[nH]3)cn2)CC1 [IQ-002-1] | < 50 | – | – | < 2 | stabilize TNKS | stabilize Axin1 |
| Cc1cccc2c(=O)[nH]c(-c3cnc(N4CCNCC4)c(F)c3)cc12 [IQ-023] | < 50 | – | – | < 2 | – | – |
| O=c1[nH]c(-c2ccc(N3CCNCC3)nc2)cc2c(Cl)cccc12 [IQ-027] | < 50 | – | – | – | stabilize TNKS | stabilize Axin1 |
| Cc1cccc2c(=O)[nH]c(-c3ccc(CN4CCCC4)cc3)cc12 [IQ-036] | < 50 | – | – | – | stabilize TNKS | stabilize Axin1 |
| Cc1cccc2c(=O)[nH]c(-c3ccc(CN4CCCCC4)cc3)cc12 [IQ-037] | < 50 | – | – | – | stabilize TNKS | stabilize Axin1 |
| Cc1cccc2c(=O)[nH]c(-c3ccc(CN4CCN(C)CC4)cc3)cc12 [IQ-038] | – | – | – | < 2 | stabilize TNKS | – |
| Cc1cccc2c(=O)[nH]c(-c3ccc(C(C)N4CCN(C)CC4)cc3)cc12 (stereo not shown) [IQ-048] | < 20 | – | – | < 2 | – | – |
| Cc1cccc2c(=O)[nH]c(-c3ccc(CN4CCC(N(C)C)CC4)cc3)cc12 [IQ-053] | – | – | – | – | stabilize TNKS | – |
| Cc1cccc2c(=O)[nH]c(-c3ccc(CN4CCN(C)C(=O)C4)cc3)cc12 [IQ-054] | < 20 | – | – | < 2 | – | – |
| Cc1cccc2c(=O)[nH]c(-c3ccc(CN4CCC(O)CC4)cc3)cc12 [IQ-074, 3-[4-(4-Hydroxy-piperidin-1-ylmethyl)-phenyl]-5-methyl-2H-isoquinolin-1-one] | < 50 | – | – | < 2 | – | – |
| Cc1cccc2c(=O)[nH]c(-c3ccc(CN4C[C@@H]5C[C@H]4CN5)cc3)cc12 [IQ-086] | < 20 | – | – | < 2 | – | – |
| Cc1cccc2c(=O)[nH]c(-c3ccc(C(=O)N(C)C4CCN(C)CC4)cc3)cc12 [IQ-100, N-Methyl-4-(5-methyl-1-oxo-1,2-dihydro-isoquinolin-3-yl)-N-(1-methyl-piperidin-4-yl)-benzamide] | < 20 | – | – | – | stabilize TNKS | stabilize Axin1 |
| COCCN1CCN(C(=O)c2ccc(-c3cc4c(C)cccc4c(=O)[nH]3)cc2)CC1 [IQ-102] | < 20 | – | – | < 2 | stabilize TNKS | stabilize Axin1 |
| Cc1cccc2c(=O)[nH]c(-c3ccc(C(=O)N4CCC(N(C)C)CC4)cc3)cc12 [IQ-106] | < 50 | – | – | < 2 | – | – |
| Cc1cccc2c(=O)[nH]c(-c3ccc(OCCN(C)C)cc3)cc12 [IQ-130] | 16 | – | 165 | – | stabilize TNKS | stabilize Axin1 |
| Cc1cccc2c(=O)[nH]c(-c3ccc(OCCN4CCOCC4)cc3)cc12 [IQ-133] | < 500 | – | – | – | stabilize TNKS | stabilize Axin1 |
| Cc1cc(F)cc2c(=O)[nH]c(-c3ccc(C(=O)N4CCN(C)CC4)cc3)cc12.O=CO [IQ-190] | < 20 | – | – | < 2 | – | – |
| Cc1ccc(F)c2c(=O)[nH]c(-c3cnc(C(=O)N4CCN(C)CC4)nc3)cc12 [IQ-225] | < 500 | < 5000 | – | – | – | – |
| C#Cc1cccc2c(=O)[nH]c(-c3ccc(CN4CCNCC4)cc3)cc12 [IQ-230, 5-Ethynyl-3-(4-piperazin-1-ylmethylphenyl)-2H-isoquinolin-1-one] | < 500 | < 5000 | – | – | – | – |
| CN(C)CCOc1ccc(-c2cc3ccccc3c(=O)[nH]2)cc1 [REF-5, reference compound] | 17 | – | > 10000 | – | – | – |
| COc1ccc(-c2cc3c(C)cccc3c(=O)[nH]2)nc1 [REF-8, reference compound] | 39 | – | 4320 | – | – | – |

Second part, led by results:

| IC50 [1] [nM] | IC50 [5, 6] [nM] | IC50 ([5]; read-out: Wnt IC50) [nM] | Structure (SMILES) | Clonogenic SF50 (DLD1) [2] [µM] | stabilize TNKS (Western blotting) [3] | stabilize Axin1 (Western blotting) [4] |
| --- | --- | --- | --- | --- | --- | --- |
| < 50 | – | – | Cc1cccc2c(=O)[nH]c(-c3ccc(CN4CCNC(C)C4)cc3)cc12 (single isomer, unassigned) [IQ-084-1] | < 2 | – | – |
| < 50 | – | – | Cc1cccc2c(=O)[nH]c(-c3ccc(CN4CCNC(C)C4)cc3)cc12 (single isomer, unassigned) [IQ-084-2] | < 2 | – | – |
| < 20 | – | – | CC(=O)N1CCN(c2ccc(-c3cc4c(C)cccc4c(=O)[nH]3)cn2)CC1 [IQ-005] | < 2 | – | – |
| < 500 | – | – | CN(C)C1CCN(c2ccc(-c3cc4c(Cl)cccc4c(=O)[nH]3)cn2)C1 (stereo not shown) [IQ-009] | < 2 | – | – |
| < 20 | – | – | CC(=O)N1CCN(c2ccc(-c3cc4c(C)cccc4c(=O)[nH]3)cc2)CC1 [IQ-017] | < 2 | – | – |
| < 50 | – | – | CN(C)CCN1CCN(c2ccc(-c3cc4c(Cl)cccc4c(=O)[nH]3)cn2)CC1 [IQ-019] | < 2 | – | – |
| < 50 | – | – | Cc1cccc2c(=O)[nH]c(-c3cnc(N4CCN(C)CC4)c(F)c3)cc12 [IQ-021] | < 2 | – | – |
| < 500 | – | – | CN1CCN(Cc2ccc(-c3cc4c(Cl)cccc4c(=O)[nH]3)cc2)CC1 [IQ-043] | < 2 | – | – |
| < 50 | – | – | Cc1cccc2c(=O)[nH]c(-c3ccc(CN4CCN(C)CC4)nc3)cc12.O=CO [IQ-057] | < 2 | – | – |
| < 50 | – | – | Cc1cccc2c(=O)[nH]c(-c3ccc(CN4CCN(C(=O)NC(C)(C)C)CC4)cc3)cc12 [IQ-068, 4-[4-(5-methyl-1-oxo-1,2-dihydro-isoquinolin-3-yl)-benzyl]-piperazine-1-carboxylic acid tert-butylamide] | < 2 | – | – |
| < 50 | – | – | Cc1cccc2c(=O)[nH]c(-c3ccc(S(=O)(=O)N4CCN(C)CC4)cc3)cc12 [IQ-121] | < 2 | – | – |
| < 50 | < 5000 | – | CN(C)CCOc1ccc(-c2cc3c(F)cccc3c(=O)[nH]2)cc1 [IQ-129] | < 2 | – | – |
| < 50 | < 5000 | – | CC(C)(C)OC(=O)N1CCN(Cc2ccc(-c3cc4c(Br)cccc4c(=O)[nH]3)cc2)CC1 [IQ-149, 4-[4-(5-Bromo-1-oxo-1,2-dihydro-isoquinolin-3-yl)-benzyl]-piperazine-1-carboxylic acid tert-butyl ester] | < 2 | – | – |
| 16 | – | 174 | Cc1cc(F)cc2c(=O)[nH]c(-c3ccc(C(=O)N4CCN(C)CC4)nc3)cc12 [IQ-222] | – | – | – |
| 76 | < 5000 | 1340 | Cc1cccc2c(=O)[nH]c(-c3ccc(C(=O)N4CCN(CC5CC5)CC4)cn3)cc12 [IQ-223, 3-[5-(4-Cyclopropylmethyl-piperazine-1-carbonyl)-pyridin-2-yl]-5-methyl-2H-isoquinolin-1-one] | – | – | – |
| < 50 | < 5000 | – | Cc1cccc2c(=O)[nH]c(-c3cnc(C(=O)N4CCN(C)CC4)nc3)cc12 [IQ-224] | – | – | – |
| < 500 | < 5000 | – | CN(C)CCOc1ccc(-c2cc3c(C#CCO)cccc3c(=O)[nH]2)cc1 [IQ-232] | – | – | – |
| 33 | – | 825 | CN1CCN(c2ncc(-c3cc4ccccc4c(=O)[nH]3)cn2)CC1 [REF-1, reference compound] | – | – | – |
| 48 | – | 1000 | CN1CCN(Cc2ccc(-c3cc4ccc(F)cc4c(=O)[nH]3)cc2)CC1 [REF-2, reference compound] | – | – | – |
| 24 | – | 742 | CN1CCN(c2ccc(-c3cc4ccccc4c(=O)[nH]3)cn2)CC1 [REF-3, reference compound] | – | – | – |
| 24 | – | 611 | O=C(C1CC1)N1CCN(c2ncc(-c3cc4c(O)cccc4c(=O)[nH]3)cn2)CC1 [REF-6, reference compound] | – | – | – |
| 42 | – | > 10000 | CN1CCN(C(=O)c2ccc(-c3cc4c(O)cccc4c(=O)[nH]3)cn2)CC1 [REF-7, reference compound] | – | – | – |

From patent US9193689B2, “3-aryl-5-substituted-isoquinolin-1-one compounds and their therapeutic use” (INSTITUTE OF CANCER RESEARCH: ROYAL CANCER HOSPITAL (THE), priority 2012, dated 2015)
